Experimental data taken from PubChem BioAssay (NCI).
Several values for one entry are separate records, joined by “and”; a condition that tells them apart may be missing. Identical values can stand only once.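 Grown in 96-well plates, cells were treated for 48 hours with each compound at five concentrations. Insufficient inhibition: endpoint recorded as highest concentration tested. Here, GI50 denotes the concentration required for 50% inhibition of growth. TGI denotes the concentration required for complete inhibition of growth.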

What was measured:
Experiment in all cases: NCI anticancer screen, dose series, 48 h
SK-MEL-5 melanoma = system: SK-MEL-5 melanoma
HCC-2998 colon = system: HCC-2998 colon
SK-MEL-28 melanoma = system: SK-MEL-28 melanoma
TK-10 renal = system: TK-10 renal
EKVX NSCLC = system: EKVX NSCLC
MDA-MB-435 = system: MDA-MB-435
HT29 colon = system: HT29 colon
HCT-116 colon = system: HCT-116 colon
OVCAR-8 ovarian = system: OVCAR-8 ovarian
SN12C renal = system: SN12C renal
SK-OV-3 ovarian = system: SK-OV-3 ovarian
NCI-H460 lung = system: NCI-H460 lung
UACC-257 melanoma = system: UACC-257 melanoma
A549 NSCLC = system: A549 NSCLC
HCT-15 colon = system: HCT-15 colon
SW-620 colon = system: SW-620 colon
M14 melanoma = system: M14 melanoma
UO-31 renal = system: UO-31 renal
LOX IMVI melanoma = system: LOX IMVI melanoma
SF-268 CNS = system: SF-268 CNS
SNB-75 CNS = system: SNB-75 CNS
BT-549 breast = system: BT-549 breast
RXF 393 renal = system: RXF 393 renal
SR leukemia = system: SR leukemia
HS 578T breast = system: HS 578T breast
IGROV1 ovarian = system: IGROV1 ovarian
CAKI-1 renal = system: CAKI-1 renal
KM12 colon = system: KM12 colon
UACC-62 melanoma = system: UACC-62 melanoma

CN1CCN(CCOc2cc(OC3CCOCC3)c3c(Nc4c(Cl)ccc5c4OCO5)ncnc3c2)CC1
GI50 (SK-MEL-5 melanoma): 11.4 µM and > 10 µM | TGI (SK-MEL-5 melanoma): 23.6 µM and > 10 µM | GI50 (HCC-2998 colon): 17.7 µM and > 10 µM | TGI (HCC-2998 colon): 37.7 µM and > 10 µM | GI50 (SK-MEL-28 melanoma): 13.6 µM and > 10 µM | TGI (SK-MEL-28 melanoma): 27.2 µM and > 10 µM | GI50 (TK-10 renal): 0.671 µM and 0.517 µM | TGI (TK-10 renal): 6.4 µM and > 10 µM | GI50 (EKVX NSCLC): 1.04 µM and 0.732 µM | TGI (EKVX NSCLC): 57.6 µM and > 10 µM | GI50 (MDA-MB-435): 13.5 µM and > 10 µM | TGI (MDA-MB-435): 27.2 µM and > 10 µM | GI50 (HT29 colon): 0.634 µM and 1.26 µM | TGI (HT29 colon): 5.47 µM and > 10 µM | GI50 (HCT-116 colon): 8.75 µM and 2.76 µM | TGI (HCT-116 colon): 29.2 µM and > 10 µM | GI50 (OVCAR-8 ovarian): 8.55 µM and 8.64 µM | TGI (OVCAR-8 ovarian): 34 µM and > 10 µM | GI50 (SN12C renal): 0.736 µM and 3.31 µM | TGI (SN12C renal): 27.2 µM and > 10 µM | GI50 (SK-OV-3 ovarian): 0.441 µM and 0.345 µM | TGI (SK-OV-3 ovarian): 13.2 µM and > 10 µM | GI50 (NCI-H460 lung): 18.6 µM and > 10 µM | TGI (NCI-H460 lung): 65.6 µM and > 10 µM | GI50 (UACC-257 melanoma): 15.1 µM and > 10 µM | TGI (UACC-257 melanoma): 30.2 µM and > 10 µM | GI50 (A549 NSCLC): 5.27 µM and 3.26 µM | TGI (A549 NSCLC): 25.9 µM and > 10 µM | GI50 (HCT-15 colon): 4.18 µM and 3.26 µM | TGI (HCT-15 colon): 26.6 µM and > 10 µM | GI50 (SW-620 colon): 17.5 µM and > 10 µM | TGI (SW-620 colon): 33.6 µM and > 10 µM | GI50 (M14 melanoma): 15.4 µM and > 10 µM | TGI (M14 melanoma): 31.3 µM and > 10 µM | GI50 (UO-31 renal): 0.42 µM and 0.373 µM | TGI (UO-31 renal): 14.5 µM and > 10 µM | GI50 (LOX IMVI melanoma): 1.45 µM and 0.971 µM | TGI (LOX IMVI melanoma): 16.2 µM and > 10 µM | GI50 (SF-268 CNS): 4.72 µM and > 10 µM | TGI (SF-268 CNS): 33.8 µM and > 10 µM | GI50 (SNB-75 CNS): 0.206 µM and 0.209 µM | TGI (SNB-75 CNS): 3.47 µM and > 10 µM | GI50 (BT-549 breast): 15.6 µM and > 10 µM | TGI (BT-549 breast): 30.7 µM and > 10 µM | GI50 (RXF 393 renal): 0.788 µM and 1.02 µM | TGI (RXF 393 renal): 12.6 µM and > 10 µM | GI50 (SR leukemia): 9.63 µM and 5.98 µM | TGI (SR leukemia): 37.4 µM and > 10 µM | GI50 (HS 578T breast): 0.732 µM and 1.7 µM | TGI (HS 578T breast): 11.2 µM and > 10 µM | GI50 (IGROV1 ovarian): 0.244 µM and 0.204 µM | TGI (IGROV1 ovarian): 2.72 µM and 3.05 µM | GI50 (CAKI-1 renal): 0.571 µM and 0.644 µM | TGI (CAKI-1 renal): 10.5 µM and > 10 µM | GI50 (KM12 colon): 1.32 µM and 2.23 µM | TGI (KM12 colon): 15.1 µM and > 10 µM | GI50 (UACC-62 melanoma): 14.8 µM | TGI (UACC-62 melanoma): 28.6 µM
